# Reference: ChEMBL document CHEMBL4428126, “Identification and Structural Characterization of Three New Metabolites of Bupropion in Humans” (ACS Med Chem Lett, 2016)
# Assays:
# [1] = Drug metabolism in human liver microsomes assessed as hydroxylation of t-butyl group preincubated for 5 mins followed by addition of NADPH measured after 20 mins by LC-MS/MS analysis; type: ADME, Microsome
# [2] = Drug metabolism in human liver cytosol assessed as formation of metabolites with m/z transitions of 258 to 184 at 10 uM preincubated for 5 mins followed by addition of NADPH measured after 20 mins by LC-MS/MS analysis; type: ADME, subcellular
# [3] = Drug recovery in urine of human treated with bupropion assessed as conjugated drug level administered orally measured over steady state dosing interval; type: ADME; settings: po
# [4] = Drug level in human liver microsome treated with bupropion at 10 uM preincubated for 5 mins followed by addition of NADPH measured after 20 mins by LC-MS/MS analysis; type: ADME; settings: microsomes
# Cytochrome P450 2C19 [5] = target: T1, Cytochrome P450 2C19 (Homo sapiens, UniProt P33261); test: Drug metabolism assessed as recombinant CYP2C19 (unknown origin)-mediated threo-4'-OH-bupropion formation at 1 uM preincubated for 5 mins followed by addition of NADPH measured after 20 mins by LC-MS/MS method; type: ADME; settings: recombinant enzyme
# T1 sequence (P33261 whole entry): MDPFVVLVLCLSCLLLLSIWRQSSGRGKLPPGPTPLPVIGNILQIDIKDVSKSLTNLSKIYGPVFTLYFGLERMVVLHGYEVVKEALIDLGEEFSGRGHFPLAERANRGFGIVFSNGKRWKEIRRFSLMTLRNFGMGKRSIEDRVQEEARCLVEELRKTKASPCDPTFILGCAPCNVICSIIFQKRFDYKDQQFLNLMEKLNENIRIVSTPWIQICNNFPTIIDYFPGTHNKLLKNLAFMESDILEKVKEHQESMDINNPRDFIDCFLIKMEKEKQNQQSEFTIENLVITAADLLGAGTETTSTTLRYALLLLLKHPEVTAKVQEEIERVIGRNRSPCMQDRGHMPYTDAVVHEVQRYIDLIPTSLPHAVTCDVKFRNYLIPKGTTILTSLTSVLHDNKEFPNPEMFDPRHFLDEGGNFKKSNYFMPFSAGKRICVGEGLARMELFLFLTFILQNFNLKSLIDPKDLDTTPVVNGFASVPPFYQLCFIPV
# [6] = Drug recovery in urine of human treated with bupropion assessed as free drug level administered orally measured over steady state dosing interval; type: ADME, tissue-based; settings: po
# [7] = Drug metabolism in human liver microsomes assessed as formation of metabolites with m/z transitions of 258 to 184 at 10 uM preincubated for 5 mins followed by addition of NADPH measured after 20 mins by LC-MS/MS analysis; type: ADME, Microsome
# [8] = Drug excretion in human urine assessed as 4'-OH-bupropion formation at 300 mg/day by LC/MS/MS analysis; type: ADME, tissue-based
# [9] = Drug metabolism in acid deconjugated urine of human subjects assessed as metabolite M6 formation at 300 mg/day by LC/MS/MS analysis; type: ADME, tissue-based
# [10] = Drug metabolism in acid deconjugated urine of human subjects assessed as metabolite M4 formation at 300 mg/day by LC/MS/MS analysis; type: ADME, tissue-based
# [11] = Plasma concentration in human assessed as erythro-4'-OH-bupropion at 300 mg/day by LC/MS/MS analysis; type: ADME, cell-free
# [12] = Drug recovery in human urine assessed as free and conjugated drug level administered orally measured over steady state dosing interval; type: ADME, tissue-based; settings: po
# [13] = Drug recovery in human urine assessed as threohydrobupropion administered as single oral dosage; type: ADME, tissue-based
# [14] = Plasma concentration in human assessed as 4'-OH-bupropion at 300 mg/day by LC/MS/MS analysis; type: ADME, cell-free
# [15] = Drug metabolism in human liver microsomes assessed as NADPH-dependant 4'-OH-bupropion formation at 10 uM preincubated for 5 mins followed by addition of NADPH measured after 20 mins by LC-MS/MS analysis; type: ADME, Microsome
# [16] = Plasma concentration in human assessed as threo-4'-OH-bupropion at 300 mg/day by LC/MS/MS analysis; type: ADME, cell-free
# [17] = Drug metabolism in human liver microsomes assessed as NADPH-dependant metabolite formation at 10 uM preincubated for 5 mins followed by addition of NADPH measured after 20 mins by LC-MS/MS analysis; type: ADME, Microsome
# [18] = Drug metabolism in acid deconjugated urine of human subjects assessed as metabolite M7 formation at 300 mg/day by LC/MS/MS analysis; type: ADME, tissue-based
# [19] = Drug metabolism in acid deconjugated urine of human subjects assessed as metabolite M3 formation at 300 mg/day by LC/MS/MS analysis; type: ADME, tissue-based
# [20] = Drug recovery in human urine administered as single oral dosage; type: ADME, tissue-based; settings: read-out: Drug recovery
# [21] = Drug recovery in human urine assessed as free drug level administered orally measured over steady state dosing interval; type: ADME, tissue-based; settings: po
# [22] = Drug excretion in human urine assessed as m-chlorohippuric acid administered as single oral dosage; type: ADME, tissue-based
# [23] = Drug metabolism in human urine assessed as metabolite M2 formation at 300 mg/day by LC/MS/MS analysis-MS analysis; type: ADME, tissue-based
# [24] = Drug metabolism in human plasma assessed as metabolite M2 formation at 300 mg/day by LC/MS/MS analysis; type: ADME, cell-free
# [25] = Drug metabolism in plasma of human subjects assessed as metabolite M7 formation at 300 mg/day by LC/MS/MS analysis; type: ADME, cell-free
# Cytochrome P450 2C19 [26] = target: T1, Cytochrome P450 2C19; test: Drug metabolism assessed as recombinant CYP2C19 (unknown origin)-mediated 4'-OH-bupropion formation at 1 uM preincubated for 5 mins followed by addition of NADPH measured after 20 mins by LC-MS/MS method; type: ADME; settings: recombinant enzyme
# [27] = Drug recovery in human urine assessed as conjugated drug level administered orally measured over steady state dosing interval; type: ADME, tissue-based; settings: po
# [28] = Drug recovery in human urine assessed as erythrohydrobupropion administered as single oral dosage; type: ADME, tissue-based
# [29] = Drug recovery in human urine assessed as OH-bupropion administered as single oral dosage; type: ADME, tissue-based
# [30] = Drug excretion in human urine assessed as polar metabolites formation administered as single oral dosage; type: ADME, tissue-based
# [31] = Drug metabolism in human plasma assessed as 4'-OH-bupropion formation at 300 mg/day by LC/MS/MS analysis; type: ADME, cell-free
# [32] = Drug metabolism in plasma of human subjects assessed as metabolite M4 formation at 300 mg/day by LC/MS/MS analysis; type: ADME, cell-free
# [33] = Drug metabolism in plasma of human subjects assessed as metabolite M6 formation at 300 mg/day by LC/MS/MS analysis; type: ADME, cell-free
# [34] = Drug level in plasma of human subjects assessed as compound formation treated with 300 mg/day bupropion by LC/MS/MS analysis; type: ADME, cell-free
# [35] = Drug level in human liver microsomes treated with 10 uM erythrohydrobupropion assessed as compound formation with m/z transitions of 258 to 184 preincubated for 5 mins followed by addition of NADPH measured after 20 mins by LC-MS/MS analysis; type: ADME, Microsome
# [36] = Drug excretion in acid deconjugated urine of human subjects treated with 300 mg/day bupropion by LC/MS/MS analysis; type: ADME, tissue-based
# Cytochrome P450 2C19 [37] = target: T1, Cytochrome P450 2C19; test: Drug metabolism assessed as recombinant CYP2C19 (unknown origin)-mediated erythro-4'-OH-bupropion formation at 1 uM preincubated for 5 mins followed by addition of NADPH measured after 20 mins by LC-MS/MS method; type: ADME; settings: recombinant enzyme
# [38] = Drug level in human liver microsomes treated with threohydrobupropion-d9 assessed as hydroxylation of t-butyl group preincubated for 5 mins followed by addition of NADPH measured after 20 mins by LC-MS/MS analysis; type: ADME, Microsome
# [39] = Drug level in human liver microsomes treated with 10 uM threohydrobupropion assessed as compound formation with m/z transitions of 258 to 184 preincubated for 5 mins followed by addition of NADPH measured after 20 mins by LC-MS/MS analysis; type: ADME, Microsome
compound,measurement,setting,value
[2H]C([2H])([2H])C(N[C@H](C)[C@@H](O)c1cccc(Cl)c1)(C([2H])([2H])[2H])C([2H])([2H])[2H],Drug metabolism,[1],Metabolite_Notdetected
C[C@@H](NC(C)(C)C)[C@@H](O)c1cccc(Cl)c1,Drug metabolism,[2],Metabolite_Notdetected
same,Drug recovery,[3],250 µmol
same,Drug metabolism,[4],Metabolite_Detected
same,Drug metabolism,Cytochrome P450 2C19 [5],Metabolite_Detected
same,Drug recovery,[6],610 µmol
same,Drug metabolism,[7],Metabolite_Detected
CC(NC(C)(C)C)C(=O)c1cccc(Cl)c1 (stereo not given) [BUPROPION],Drug excretion,[8],Metabolite_Detected
same,Drug metabolism,[9],Metabolite_Detected
same,Drug metabolism,[10],Metabolite_Detected
same,concentration,[11],33 nM
same,Drug recovery,[12],1.4 %ID
same,Drug recovery,[13],23 %ID
same,concentration,[14],12 nM
same,Drug metabolism,[15],Metabolite_Detected
same,concentration,[16],7 nM
same,Drug metabolism,[17],Metabolite_Detected
same,Drug metabolism,[18],Metabolite_Detected
same,Drug metabolism,[19],Metabolite_Detected
same,dose excreted,[20],23%
same,Drug recovery,[21],59 µmol
same,Drug excretion,[22],22 %ID
same,Drug metabolism,[23],Metabolite_Notdetected
same,Drug metabolism,[24],Metabolite_Notdetected
same,Drug metabolism,[25],Metabolite_Detected
same,Drug metabolism,Cytochrome P450 2C19 [26],Metabolite_Detected
same,Drug recovery,[27],6.5 µmol
same,Drug recovery,[28],23 %ID
same,Drug recovery,[29],23 %ID
same,Drug excretion,[30],36 %ID
same,Drug metabolism,[31],Metabolite_Detected
same,Drug metabolism,[32],Metabolite_Detected
same,Drug metabolism,[33],Metabolite_Detected
C[C@@H](NC(C)(C)C)[C@@H](O)c1ccc(O)c(Cl)c1 (relative stereo),Drug metabolism,[10],Metabolite_Detected
same,Drug metabolism,[34],Metabolite_Detected
same,Drug recovery,[3],200 µmol
same,Drug recovery,[6],0.9 µmol
same,Drug metabolism,[35],Metabolite_Detected
same,Drug metabolism,[7],Metabolite_Detected
same,Drug excretion,[36],Metabolite_Detected
C[C@@H](NC(C)(C)C)[C@H](O)c1cccc(Cl)c1,Drug metabolism,[2],Metabolite_Notdetected
same,Drug recovery,[3],22 µmol
same,Drug metabolism,[4],Metabolite_Detected
same,Drug recovery,[6],63 µmol
same,Drug metabolism,Cytochrome P450 2C19 [37],Metabolite_Detected
same,Drug metabolism,[7],Metabolite_Detected
CC1NC(C)(C)COC1(O)c1cccc(Cl)c1 (stereo not given),Drug metabolism,[2],Metabolite_Notdetected
same,Drug recovery,[3],110 µmol
same,Drug metabolism,[4],Metabolite_Detected
same,Drug recovery,[6],77 µmol
same,Drug metabolism,[7],Metabolite_Notdetected
C[C@@H](NC(C)(C)C)[C@H](O)c1ccc(O)c(Cl)c1,Drug metabolism,[10],Metabolite_Detected
same,Drug metabolism,[34],Metabolite_Detected
same,Drug metabolism,[38],Metabolite_Detected
same,Drug recovery,[3],160 µmol
same,Drug metabolism,[39],Metabolite_Detected
same,Drug recovery,[6],3.3 µmol
same,Drug metabolism,[7],Metabolite_Detected
same,Drug excretion,[36],Metabolite_Detected
O=C(O)CNC(=O)c1cccc(Cl)c1,Drug recovery,[6],167 µmol
CC(NC(C)(C)C)C(=O)c1ccc(O)c(Cl)c1 (stereo not given),Drug metabolism,[2],Metabolite_Notdetected
same,Drug recovery,[3],29 µmol
same,Drug metabolism,[4],Metabolite_Detected
same,Drug recovery,[6],0.3 µmol
same,Drug excretion,[36],Metabolite_Detected
